The record followed here is patent publication US12473270B2, “CB1R receptor blockers with acyclic backbones” (YISSUM RESEARCH DEVELOPMENT COMPANY OF THE HEBREW …, priority 2019, dated 2025).

One data set deals with mice. The data set can be described thus: Antagonizing cannabinoid (HU-210)-induced hypomotility. The following applies: HU-210 30 μg/kg ip; rimonabant 10 mg/kg ip; BNS-002 10, 20 and 50 mg/kg. It is filed as in vivo, mouse. Here is the method:
Locomotor activity. Locomotor activity was quantified by the number of disruptions of infrared XYZ beam arrays with a beam spacing of 0.25 cm in the Promethion High-Definition Behavioral Phenotyping System (Sable Instruments, Inc., Las Vegas, NV, USA).
Antagonizing cannabinoid-induced hypomotility. The ability of the different compounds to inhibit the hypomotility induced by HU210 (cannabinoid agonist) was evaluated. […] A half an hour thereafter, mice received a single dose of HU210 (30 ug/kg, IP) and their locomotor activity was evaluated as described above.

In data set [1] the test system is mice with diet-induced obesity (DIO). The data set can be described thus: Glycemic control (ipGTT, ipIST, glucose, insulin) in DIO mice. It is filed as in vivo, mouse. The conditions noted are these: DIO mice, 10 mg/kg/d ip. Here is the method:
Glucose tolerance (ipGTT) test and insulin sensitivity tests (ipIST). Mice that fasted overnight were injected with glucose (1.5 g/kg, ip), followed by a tail blood collection at 0, 15, 30, 45, 60, 90, and 120 minutes. Blood glucose levels were determined using the Elite glucometer (Bayer, Pittsburgh, PA). On the following day, mice were fasted for 6 h before receiving insulin (0.75 U/kg, i.p.; Eli Lilly, […], USA or Actrapid® vial, novo nordisk A/S, Denmark), and blood glucose levels were determined at the same intervals as above.
(§1) Blood and urine biochemistry. Serum and urine levels of creatinine as well as serum levels of ALT, AST, ALP, HDL, LDL, TG and cholesterol were determined by using the Cobas C-111 chemistry analyzer (Roche, Switzerland). Creatinine clearance was calculated using urine and serum creatinine levels (CCr mL/h=Urine creatinine mg/dL×Urine volume/Serum creatinine mg/dL×24 hrs). Serum insulin levels were measured by an ELISA kit (Crystal Chem, Inc., Downers Grove, IL, USA). Fasting blood glucose was measured using the Elite glucometer (Bayer, Pittsburgh, PA).

Data set [2] shares this test system. The data set can be described thus: HFD-induced hepatic steatosis and liver injury. It is filed as in vivo, mouse. The conditions noted are these: DIO mice, 10 mg/kg/d ip. Here is the method: as §1
Histopathological Analyses. 5 μm paraffin-embedded liver sections from 5 animals per group were stained with hematoxylin-eosin staining. Liver images were captured with a Zeiss AxioCam ICc5 color camera mounted on a Zeiss Axio Scope.A1 light microscope and taken from 10 random 40× fields of each animal.

Data set [3] has as its target T1, CB1 receptor (Mus musculus, UniProt P47746).
T1 construct: crude membranes from mouse brain for CB1 receptor; from tissue; host or cells: mouse brain membranes (crude / P2)
The data set can be described thus: [35S]GTPγS binding in mouse brain membranes. It is filed as biochemical. Here is the method:
[^35S]GTPγS binding. Mouse brains were dissected and P2 membranes prepared and resuspended at ˜6 μg protein/μL in 1 ml assay buffer (50 mM Tris HCl, 9 mM MgCl2, 0.2 mM EGTA, 150 mM NaCl; pH 7.4). […] Briefly, membranes (10 μg protein) were incubated in assay buffer containing 100 μM GDP, 0.05 nM [^35S]GTPγS, test compounds at 1 nM-1 μM, and 1.4 mg/mL fatty acid-free BSA in siliconized glass tubes. Bound ligand was separated from free by vacuum filtration. Non-specific binding was determined using 10 μM GTPS. Basal binding was assayed in the absence of the ligand and in the presence of GDP.
For orientation: GTPγS is a poorly hydrolysed GTP analogue; its binding reports G protein activation.

Data set [4] relates to mice with diet-induced obesity (DIO). The data set can be described thus: HFD-induced kidney hyperfiltration. It is filed as in vivo, mouse. The conditions noted are these: BNS-002. Here is the method:
as §1

Data set [5] has the same test system. The data set can be described thus: Multi-parameter metabolic assessment (indirect calorimetry) in DIO mice. It is filed as in vivo, mouse. The conditions noted are these: DIO mice, 10 mg/kg/d ip. Here is the method:
Multi-parameter metabolic assessment. Metabolic profile of the mice was assessed by using the Promethion High-Definition Behavioral Phenotyping System (Sable Instruments, Inc., Las Vegas, NV, USA). Data acquisition and instrument control were performed using MetaScreen software version 2.2.18.0, and the obtained raw data were processed using ExpeData version 1.8.4 using an analysis script detailing all aspects of data transformation. Mice with free access to food and water were subjected to a standard 12 h light/12 h dark cycle, which consisted of a 48 h acclimation period followed by 24 h of sampling. Respiratory gases were measured by using the GA-3 gas analyzer (Sable Systems, Inc., Las Vegas, NV, USA) using a pull-mode, negative-pressure system. Air flow was measured and controlled by FR-8 (Sable Systems, Inc., Las Vegas, NV, USA), with a set flow rate of 2000 mL/min. Water vapor was continuously measured and its dilution effect on O2 and CO2 was mathematically compensated. Effective mass was calculated by [body mass]^0.75. Fat oxidation (FO) and carbohydrate oxidation (CHO) were calculated as FO=1.69×VO2−1.69×VCO2 and CHO=4.57×VCO2−3.23×VO2 and expressed as g/d/kg^eff.Mass.

Data set [6] addresses T1, CB1 receptor. Put plainly: [3H]CP-55,940 radioligand displacement assay. It is filed as binding. Here is the method: Radioligand binding assays. BNS-002 binding to CB1 receptor was assessed in competition displacement assays using [^3H]CP-55,940 as the radioligand and crude membranes from mouse brain for CB1 receptor. All data were in triplicates with Ki values determined from three independent experiments.
Radioligand binding assay. Binding of the tested compounds to CB1 receptor was assessed in competition displacement assays using [3H]CP-55,940 as the radioligand and crude membranes from mouse brain for CB1 receptor. Membranes were extracted according to an established protocol previously described by Catani V. M. and Gasperi V.. Compounds were tested at different concentrations (10-5M-10-11M) and their ability to displace [3H]CP-55,940 was evaluated. Membranes with bound [3H]CP-55,940 were separated and washed from free ligand by vacuum filtration and bound [3H]CP-55,940 radioactivity was measured using a […]. All data were in triplicates with Ki values extracted by nonlinear regression analysis using GraphPad Prism software.
In general terms: Loss of bound radioactivity is the signal in a displacement assay; it reports binding, not function.

Data set [7] deals with mice with diet-induced obesity (DIO). The data set can be described thus: Body weight, adiposity and food intake in diet-induced obese mice. It is filed as in vivo, mouse. From the text:
Mice. The experimental protocol used was approved by the Institutional Animal Care and Use Committee of the Hebrew University, which is an AAALAC International accredited institute. Male 6 week old C57Bl/6J mice were obtained from Harlan Laboratories. Mice were maintained under a 12-h light/dark cycle and fed ad libitum. To generate diet-induced obesity, C57Bl6/J mice were fed either a high-fat diet (HFD) (60% of calories from fat, 20% from protein, and 20% from carbohydrates; Research Diet, D12492) or a standard laboratory diet (STD, 14% fat, 24% protein, 62% carbohydrates; NIH-31 rodent diet) for 14 weeks.
Age-matched control mice on STD received vehicle daily. Body weight and food intake were monitored daily. Total body fat and lean masses were determined by EchoMRI-100H™ (Echo Medical Systems LLC, Houston, TX, USA). 24 h urine was collected one week before euthanasia using mouse metabolic cages (CCS2000 Chiller System, Hatteras Instruments, NC, USA). At weeks 20 mice were euthanized by a cervical dislocation under anesthesia, the kidneys, brain, liver, fat pads, and muscles were removed and weighed, and samples were either snap-frozen or fixed in buffered 4% formalin Trunk blood was collected for determining the biochemical parameters.

Data set [8] is described as follows: Tissue levels of antagonists (brain penetrance). The following applies: mice, 3 and 10 mg/kg ip, 1 hour. It is filed as in vivo, mouse. Here is the method:
Tissue levels of antagonists. […] Blood was collected, and the mice were perfused with phosphate buffered saline for 1 min to remove drug from the intravascular space before removing the brain and liver. Drug levels in tissue homogenates and plasma were determined by using LC-MS/MS.

pKi: −log10 of the molar value.

T1 sequence (P47746 whole entry): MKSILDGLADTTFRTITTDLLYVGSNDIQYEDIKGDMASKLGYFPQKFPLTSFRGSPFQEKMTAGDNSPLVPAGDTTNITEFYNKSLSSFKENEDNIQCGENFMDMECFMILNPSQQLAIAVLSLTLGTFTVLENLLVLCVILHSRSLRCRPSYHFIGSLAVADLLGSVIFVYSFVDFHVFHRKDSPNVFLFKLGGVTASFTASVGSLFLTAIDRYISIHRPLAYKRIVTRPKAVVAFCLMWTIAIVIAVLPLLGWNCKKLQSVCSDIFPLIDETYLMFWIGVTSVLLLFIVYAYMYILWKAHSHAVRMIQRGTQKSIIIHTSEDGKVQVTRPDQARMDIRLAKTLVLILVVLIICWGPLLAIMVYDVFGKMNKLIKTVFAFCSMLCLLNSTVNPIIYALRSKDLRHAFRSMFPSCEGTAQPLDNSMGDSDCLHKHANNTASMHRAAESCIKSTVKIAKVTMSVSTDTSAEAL

A word on the pKi: it is −log10 of the Ki, conventionally taken in molar units. Turning to `CCCCCCCCCCCCCCCCCCNC(=O)c1nn(-c2ccc(Cl)cc2Cl)c(-c2ccc(Cl)cc2)c1C` [BNS-002, 5-(4-chlorophenyl)-1-(2,4-dichlorophenyl)-4-methyl-N-octadecyl-1H-pyrazole-3-carboxamide], in the data set with mice, the “increase in immobility induced by HU-210” value was “unaffected”. Moreover, in data set [1], the HFD-induced glucose intolerance result is given as “completely reversed” and the HFD-induced hyperglycemia result is “completely reversed”. Moreover, the “HFD-induced hepatic steatosis (fat vacuoles in the liver)” value in data set [2] was “partially”. At CB1 receptor [3], the “functional profile by GTPγS binding (inverse agonism)” value was “inverse agonist”. Further, the “GTPγS binding in mouse brain membranes” value on CB1 receptor [3] (compound alone) is listed as “reduces GTPγS binding”. In addition, at CB1 receptor [3] (with HU-210), the “action of the potent CB1 receptor agonist HU-210 on GTPγS binding” value is “able to ameliorate”. In addition, the HFD-induced kidney hyperfiltration entry in data set [4] was “completely normalized”. Also, in data set [5], the “HFD-induced reduction in VO2” value is listed as “upregulate”, the “HFD-induced reduction in fat oxidation” value is “upregulate” and the “HFD-induced reduction in total energy expenditure” value was “upregulate”. The pKi on CB1 receptor [6] ([3H]CP-55,940, crude membranes from mouse brain, read-out: Ki for CB1 receptor) was 8.30. Further, the “affinity for CB1 receptor (in words)” value on CB1 receptor [6] (radioligand displacement) was “retains high affinity and selectivity”. Further, in [7] (10 mg/kg/d ip, 28 days), the “increased adiposity of mice on HFD” value is “significantly reduced by rimonabant only” and the “overweight of mice on HFD” value is recorded as “significantly reduced by rimonabant only”. Also, the body weight reduction result in [7] (7 days, BNS-002 15 mg/kg ip) was “no effect”. The “overweight of mice on HFD” value in [7] (7 days, rimonabant 10 mg/kg/d, BNS-002 30 mg/kg ip) is “significantly reduced”. Also, in [8], the brain levels result was “reduced”, the brain penetrance result is on record as “markedly reduced” and the serum levels result is recorded as “increased”.
